PMC8453943 (Clinical Pharmacology in Drug Development, 2021)
Like-named read-outs stand apart in the source and are kept apart here.

Assays:
[1] = Part 1 single-ascending-dose study, plasma PK; assay type: in vivo, human; settings: for Tmax: human, plasma, po; for CL/F, Geometric mean (% CV) / CL/F, Mean (SD): fasted
[2] = Part 1 single-ascending-dose study, urine PK; assay type: in vivo, human; settings: within 48 hours, across all dose groups
[3] = Part 2 effect of a low-fat meal on PK; assay type: in vivo, human; settings: for AUC(0-inf) / Cmax / Tmax: human, plasma, oral; for Tmax: Median (range)
[4] = Part 3 relative bioavailability of capsule B vs capsule A; assay type: in vivo, human
[5] = Safety and tolerability assessments; assay type: in vivo, human
[6] = Dose proportionality, power model on pooled exposure data; assay type: in vivo, human; settings: 40- to 160-mg dose range, pooled parts 1-3
[7] = cited from earlier work
CYP3A4/5 = settings: recombinant human CYPs, in vitro; cited from earlier work
[8] = repeat dosing, animals; dermal and gastrointestinal toxicities; cited from earlier work
[9] = in vitro assays; cited from earlier work
[10] = cited from earlier work; remark: listed apart in the source
[11] = preclinical studies; cited from earlier work
EGFR = settings: NSCLC with EGFR exon 20 insertion mutations; cited from earlier work
[12] = part 1, 120 mg single oral dose
[13] = part 1, 160 mg single oral dose
[14] = 120 mg, Geometric mean (% CV), part 2, 120 mg, fasted
[15] = 120 mg, Geometric mean (% CV), part 2, 120 mg, low-fat meal
[16] = 120 mg, Mean (SD), part 2, 120 mg, fasted
[17] = 120 mg, Mean (SD), part 2, 120 mg, low-fat meal
[18] = 160 mg, Geometric mean (% CV), part 2, 160 mg, fasted
[19] = 160 mg, Geometric mean (% CV), part 2, 160 mg, low-fat meal
[20] = 160 mg, Mean (SD), part 2, 160 mg, fasted
[21] = 160 mg, Mean (SD), part 2, 160 mg, low-fat meal
[22] = part 2, 120 mg, low-fat meal (test) vs fasted (reference)
[23] = part 3, 160 mg, fasted, capsule B (test) vs capsule A (reference)
[24] = AEs in ≥10% of volunteers in any part
[25] = part 1, overall (N = 40, includes pooled placebo)
[26] = part 2, 120 mg, low-fat meal (n = 6)
[27] = part 2, 160 mg, fasted (n = 10)
[28] = part 2, 160 mg, low-fat meal (n = 10)
[29] = part 3, mobocertinib 160 mg, overall (N = 13)

## C=CC(=O)Nc1cc(Nc2ncc(C(=O)OC(C)C)c(-c3cn(C)c4ccccc34)n2)c(OC)cc1N(C)CCN(C)C [Mobocertinib]
[1]
  Tmax: 4 to 6 h
[1]; 80 mg
  Tmax: 4 h
[1]; 120 mg
  Tmax: 6 h
[1]; 160 mg
  Tmax: 6 h
[1]; part 1, 20 mg mobocertinib cohort
  Time for which analyte was quantifiable in plasma: up to 72 hours
[1]; part 1, 20 mg single oral dose
  CL/F, Geometric mean (% CV): 314 (11.9) L/h
  CL/F, Mean (SD): 316 (37.5) L/h
[1]; part 1, 40 mg mobocertinib cohort
  Time for which analyte was quantifiable in plasma: ≤ 96 h
[1]; part 1, 40 mg single oral dose
  CL/F, Geometric mean (% CV): 249 (49.5) L/h
  CL/F, Mean (SD): 283 (140.1) L/h
[1]; part 1, 80 mg mobocertinib cohort
  Time for which analyte was quantifiable in plasma: ≤ 96 h
[1]; part 1, 80 mg single oral dose
  CL/F, Geometric mean (% CV): 312 (72.0) L/h
  CL/F, Mean (SD): 378 (272.2) L/h
[1]; part 1, 120 mg mobocertinib cohort
  Time for which analyte was quantifiable in plasma: ≤ 96 h
[1]; [12]
  CL/F, Geometric mean (% CV): 263 (56.9) L/h
  CL/F, Mean (SD): 292 (166.2) L/h
[1]; part 1, 160 mg mobocertinib cohort
  Time for which analyte was quantifiable in plasma: ≤ 168 h
[1]; [13]
  CL/F, Geometric mean (% CV): 157 (33.2) L/h
  CL/F, Mean (SD): 168 (55.7) L/h
[2]
  Administered mobocertinib dose excreted unchanged in urine: < 1.2%
[3]; [14]
  AUC(0-inf): 526 ng·h/mL
  Cmax: 31.2 ng/mL
[3]; [15]
  AUC(0-inf): 534 ng·h/mL
  Cmax: 27.5 ng/mL
[3]; [16]
  AUC(0-inf): 587 ng·h/mL
  Cmax: 35.5 ng/mL
[3]; [17]
  AUC(0-inf): 578 ng·h/mL
  Cmax: 29.5 ng/mL
[3]; 120 mg, part 2, 120 mg, fasted
  Tmax: 4 h
[3]; 120 mg, part 2, 120 mg, low-fat meal
  Tmax: 6 h
[3]; [18]
  AUC(0-inf): 743 ng·h/mL
  Cmax: 41 ng/mL
[3]; [19]
  AUC(0-inf): 706 ng·h/mL
  Cmax: 39.5 ng/mL
[3]; [20]
  AUC(0-inf): 862 ng·h/mL
  Cmax: 45.8 ng/mL
[3]; [21]
  AUC(0-inf): 768 ng·h/mL
  Cmax: 43 ng/mL
[3]; 160 mg, part 2, 160 mg, fasted
  Tmax: 6 h
[3]; 160 mg, part 2, 160 mg, low-fat meal
  Tmax: 6 h
[3]; mobocertinib and its active metabolites
  Effect of a low-fat meal on PK: did not affect the PK
[3]; [22]
  AUC∞, Geometric LS Mean Ratio (90%CI): 1.02 (0.90‐1.15)
  Cmax, Geometric LS Mean Ratio (90%CI): 0.88 (0.71‐1.09)
[3]; part 2, 160 mg, low-fat meal (test) vs fasted (reference)
  Cmax, Geometric LS Mean Ratio (90%CI): 0.96
[3]; part 2, 120 and 160 mg, low-fat meal and fasted
  Time for which mean plasma concentrations were quantifiable: up to 168 hours
[4]; human, plasma, oral, 160 mg
  Tmax: 5 to 6 h
[4]; [23]
  AUC∞, LS Geometric Mean Ratio (90%CI): 0.96
  Cmax, LS Geometric Mean Ratio (90%CI): 0.93
[5]; [24]
  Diarrhea: 10.0%
  Flatulence: 12.5%
  Soft feces: 12.5%
[5]; all parts
  Serious AEs: No serious AEs were reported
[5]; part 1 (includes pooled placebo)
  Volunteers who experienced AEs: 48%
[5]; part 1, 20 mg (n = 6)
  AE leading to discontinuation: 0 n (%)
  Any AE: 2 (33) n (%)
  Grade 1 AE: 2 (33) n (%)
  Grade 2 AE: 0 n (%)
  Grade ≥3 AE: 0 n (%)
  Treatment-related AE: 1 (17) n (%)
[5]; part 1, 40 mg (n = 6)
  AE leading to discontinuation: 0 n (%)
  Any AE: 3 (50) n (%)
  Grade 1 AE: 2 (33) n (%)
  Grade 2 AE: 1 (17) n (%)
  Grade ≥3 AE: 0 n (%)
  Treatment-related AE: 0 n (%)
[5]; part 1, 80 mg (n = 6)
  AE leading to discontinuation: 0 n (%)
  Any AE: 4 (67) n (%)
  Grade 1 AE: 3 (50) n (%)
  Grade 2 AE: 1 (17) n (%)
  Grade ≥3 AE: 0 n (%)
  Treatment-related AE: 3 (50) n (%)
[5]; part 1, 120 mg (n = 6)
  AE leading to discontinuation: 0 n (%)
  Any AE: 3 (50) n (%)
  Grade 1 AE: 1 (17) n (%)
  Grade 2 AE: 2 (33) n (%)
  Grade ≥3 AE: 0 n (%)
  Treatment-related AE: 0 n (%)
[5]; part 1, 160 mg (n = 6)
  AE leading to discontinuation: 0 n (%)
  Any AE: 5 (83) n (%)
  Grade 1 AE: 4 (67) n (%)
  Grade 2 AE: 1 (17) n (%)
  Grade ≥3 AE: 0 n (%)
  Treatment-related AE: 3 (50) n (%)
[5]; part 1, 20-mg dose group
  Decrease in serum creatine kinase: –26.8 U/L
[5]; part 1, 160-mg group
  Decrease in serum creatine kinase: –69.0 U/L
[5]; [25]
  AE leading to discontinuation: 0 n (%)
  Any AE: 19 (48) n (%)
  Grade 1 AE: 14 (35) n (%)
  Grade 2 AE: 5 (13) n (%)
  Grade ≥3 AE: 0 n (%)
  Treatment-related AE: 9 (23) n (%)
[5]; part 2
  Volunteers who experienced AEs: 75%
[5]; part 2, 120 mg, fasted (n = 6)
  AE leading to discontinuation: 0 n (%)
  Any AE: 3 (50) n (%)
  Grade 1 AE: 2 (33) n (%)
  Grade 2 AE: 1 (17) n (%)
  Grade ≥3 AE: 0 n (%)
  Treatment-related AE: 3 (50) n (%)
  Treatment-related AE, Grade ≥3: 0 n (%)
[5]; [26]
  AE leading to discontinuation: 0 n (%)
  Any AE: 3 (50) n (%)
  Grade 1 AE: 2 (33) n (%)
  Grade 2 AE: 0 n (%)
  Grade ≥3 AE: 1 (17) n (%)
  Treatment-related AE: 2 (33) n (%)
  Treatment-related AE, Grade ≥3: 0 n (%)
[5]; [27]
  AE leading to discontinuation: 0 n (%)
  Any AE: 5 (50) n (%)
  Grade 1 AE: 5 (50) n (%)
  Grade 2 AE: 0 n (%)
  Grade ≥3 AE: 0 n (%)
  Treatment-related AE: 5 (50) n (%)
  Treatment-related AE, Grade ≥3: 0 n (%)
[5]; [28]
  AE leading to discontinuation: 0 n (%)
  Any AE: 7 (70) n (%)
  Grade 1 AE: 7 (70) n (%)
  Grade 2 AE: 0 n (%)
  Grade ≥3 AE: 0 n (%)
  Treatment-related AE: 4 (40) n (%)
  Treatment-related AE, Grade ≥3: 0 n (%)
[5]; part 2, overall (N = 16)
  AE leading to discontinuation: 0 n (%)
  Any AE: 12 (75) n (%)
  Grade 1 AE: 11 (69) n (%)
  Grade 2 AE: 0 n (%)
  Grade ≥3 AE: 1 (6) n (%)
  Treatment-related AE: 8 (50) n (%)
  Treatment-related AE, Grade ≥3: 0 n (%)
[5]; part 3
  Volunteers who experienced AEs: 46%
[5]; [29]
  AE leading to discontinuation: 1 (8) n (%)
  Grade 1 AE: 5 (39) n (%)
  Grade 2 AE: 1 (8) n (%)
  Grade ≥3 AE: 0 n (%)
  Treatment-related AE: 2 (15) n (%)
  Volunteers with AEs: 6 (46) n (%)
[5]; single oral dose
  Single doses tolerated in healthy adult volunteers: up to 160 mg
[6]
  Slope (95% CI) of regression of log mobocertinib AUC∞ vs log dose: 1.20 (0.93‐1.46)
[7]; 160 mg once daily, repeat dosing, ref NCT02716116
  Accumulation ratio of AUC0-24, cycle 2 day 1 over cycle 1 day 1: 1.03
[7]; once daily, patients
  Maximum tolerated dose: 160 mg
CYP3A4/5
  Percent contribution of CYP3A4/5 to metabolism: > 90%
[8]
  Maximum tolerated dose: 10 mg/kg
[9]
  Genotoxicity: no evidence of genotoxicity
[10]
  Permeability: high permeability
  Solubility: high solubility
[11]
  Route of elimination: eliminated almost completely through feces

## C#Cc1cccc(Nc2ncnc3cc(OCCOC)c(OCCOC)cc23)c1 [erlotinib]
EGFR
  Median progression-free survival: ≈ 2 months

## C=CC(=O)Nc1cc(Nc2nccc(-c3cn(C)c4ccccc34)n2)c(OC)cc1N(C)CCN(C)C [osimertinib]
EGFR
  Median progression-free survival: ≈ 2 months
